{"source": "patent US6348317B1", "about": "“Fluorescent and DNA cleavage properties of peptide/dye conjugates” (The Arizona Board of Regents, priority 1999, dated 2002)", "key": {"GRE3 dsDNA": {"system": "GRE3 dsDNA", "experiment": "Photocleavage at 514 nm, PAGE analysis", "type": "biochemical", "method": "The purified DNA strands shown in FIG. 2 were 5′^-32P-end-labeled using T4 polynucleotide kinase and purified as described above. Oxygen removal was performed by bubbling argon through the samples. Irradiations were performed on […] samples in a 1.0 mL glass cuvette fit with a septum using an argon-ion laser at 514 nm with a power of 300 mW/cm^2. After irradiation, samples were divided in half and one portion treated with piperidine, the other immediately frozen. Piperidine treatment consisted of adding an equal volume of freshly prepared 20% piperidine in water to the sample followed by heating at 90° C. for 30 minutes. Both the treated and untreated fractions were dried under vacuum. To each dried sample was added […] of 80% formamide in water. The products of the photocleavage experiments were analyzed on a 15% polyacrylamide (19:1) vertical sequencing gel with dimensions 21 cm×40 cm×0.4 mm. Maxam-Gilbert A+G and C+T sequencing reactions were used as a reference. A. M. Maxam, et al., Meth. Enzymol. 65:499-560 (1980). Gels were run at 2000V for 1.5-2 hours. Gels were dried and exposed to a phosphorimaging screen for 4 hours and analyzed on a Molecular Dynamics Storm-840 gel scanner in phosphorimaging mode.\nPhotocleavage of TO-ZF conjugate. We examined the photoinduced cleavage of 5′-32P-end-labeled dsDNA fragments containing the dsDNA sequences GRE1, GRE2 and GRE3 in the presence of either unconjugated TO or TO-ZF. […] We have performed similar photocleavage measurements of the complementary strands in the dsDNA duplexes used in each case. […] After irradiation of TO-ZF bound to dsDNA in Tris buffer solution at 514 nm (514 nm is in the main band of the absorbance spectrum of intercalated thiazole orange as shown in FIG. 3), the photo-products were denatured and separated using denaturing polyacrylamide gel electrophoresis (PAGE). […]\nTo explore other possible mechanisms of thiazole orange mediated photocleavage in the region on the 5′-side of the GRE target sequence, the guanine located within the GRE (5′-TGTTCT-3′) in the GRE1 dsDNA fragment was changed to an adenine to give GRE3 (FIG. 2). […] Fluorescence measurements of TO-ZF binding to GRE1 and GRE3 target sequences (FIG. 5A) show only a modest difference in the dissociation constant between the two sequences. Thus the measured changes in the photocleavage products between GRE1 and GRE3 are not an artifact of strong differences in the binding affinity of TO-ZF between these sequences. […] The total chemical yield of the piperidine dependent reactions in these bands, measured as the number of fluorescence counts in product bands divided by the total counts of a given lane, increased three-fold from 2% in GRE1 (described above) to 6% in GRE3 for samples reacted in the presence of oxygen. […]"}, "[1]": {"target": "GRE4 dsDNA (non-specific GRE halfsite)", "experiment": "Thiazole orange total fluorescence titration with unlabeled DNA", "conditions": "TO fluorescence ex 510 nm, em 535 nm; read-out: binding constant (dissociation constant)", "method": "(§1) Fluorescence Measurements. Steady state fluorescence anisotropy measurements were carried out in 20 mM Tris (pH 7.9), 30 mM NaCl, 20 mM KCl, 1 mM MgCl2, and 5% glycerol. […] DNA samples used were either the non-labeled sequences shown in FIG. 2 or a fluorescein labeled duplex with a sequence matching GRE2 (FIG. 2).\n(§2) For non-labeled DNA titrations (measuring the fluorescence from thiazole orange), the excitation wavelength was 510 nm and the emission was recorded at 535 nm with a 1.0 nm slit width. Glass cuvettes were used with a 0.3 cm path length. Titrations were performed using a constant concentration of unconjugated thiazole orange (TO) or TO-ZF and titrated with DNA as indicated.\n(§3) Total fluorescence data were collected in parallel to the anisotropy measurements and were calculated from raw data as the fluorescence intensity in the vertical plane plus two times the fluorescence intensity of the horizontal plane, (TF=Ivv+2Ivh). These values were used to determine the percent of the maximum fluorescence for each point along the titration and fit to equation 2. [formula]\n(§4) In equation 2, f corresponds to the fraction of TO-ZF conjugate bound at a given concentration of DNA. The concentration given as [TO(ZF)]T corresponds to either the unconjugated thiazole orange or the TOZF conjugate as indicated and [GRE]T is the total concentration of GRE binding sites. The parameter of the fit was the dissociation constant (Kd).\n(§5) Titrations of the TO fluorescence upon binding of TO-ZF to unlabeled DNA were measured for the dsDNA sequences shown in FIG. 2. TO fluorescence was excited at 510 nm and collected at 535 nm. The GRE1 DNA sequence contains the same binding site as does the GRE2 DNA sequence used above, however, the GRE3 sequence contains a single mutation of the guanine in the native GRE target sequence (5′-TGTTCT-3′) to an adenine. The GRE2 and GRE3 sequences were generated for use in the photocleavage measurements described below. Finally, the GRE4 and ERE recognition sequences are from the non-specific GRE halfsite and the estrogen response element (ERE), respectively. M. A. L. Eriksson, J. Molec. Biol. 253:453-472 (1995). These are used in conjunction with the other sequences to determine the sensitivity of this probe. The DNA is not fluorescently labeled in these measurements. Therefore, the fluorescence is exclusively from thiazole orange molecules intercalated into dsDNA.\n(§6) Fitting the binding curves to a two-state binding model (see Materials and Methods) results in a dissociation constant of 25 nM for GRE1 and GRE2, which contain the native GRE. Titrations of the modified GRE sequences and the ERE sequence yielded binding constants of 57 nM, 220 nM and 810 nM for the TO-ZF conjugate bound to GRE3, GRE4, and ERE, respectively."}, "[2]": {"target": "GRE2 dsDNA (native GRE target sequence)", "experiment": "Thiazole orange total fluorescence titration with unlabeled DNA", "conditions": "TO fluorescence ex 510 nm, em 535 nm; read-out: dissociation constant, two-state binding model", "method": "as §1, §2, §3, §4, §5, §6"}, "[3]": {"target": "GRE3 dsDNA (guanine of GRE changed to adenine)", "experiment": "Thiazole orange total fluorescence titration with unlabeled DNA", "conditions": "TO fluorescence ex 510 nm, em 535 nm; read-out: binding constant (dissociation constant)", "method": "as §1, §2, §3, §4, §5, §6"}, "[4]": {"target": "GRE1 dsDNA (native GRE target sequence)", "experiment": "Thiazole orange total fluorescence titration with unlabeled DNA", "conditions": "TO fluorescence ex 510 nm, em 535 nm; read-out: dissociation constant, two-state binding model", "method": "as §1, §2, §3, §4, §5, §6"}}, "data": [{"substance": "TO-ZF: 29 amino acid single zinc finger from residues 438-465 of glucocorticoid receptor, thiazole orange coupled to a lysine ε-amine", "values": [{"measurement": "pattern of photo-induced cleavage", "setting": "GRE3 dsDNA; 514 nm, gel electrophoresis", "value": "a confined group of bands flanking the altered GRE sequence which are only partially piperidine dependent"}, {"measurement": "increase in band intensity of strand cleavage in the presence of D2O", "setting": "GRE3 dsDNA; D2O rather than H2O in the buffer", "value": "≤ 25", "unit": "%"}, {"measurement": "lowering of chemical yield in the absence of oxygen", "setting": "GRE3 dsDNA; piperidine treated samples, absence of oxygen", "value": "10-20%"}, {"measurement": "total chemical yield of the piperidine dependent reactions", "setting": "GRE3 dsDNA; samples reacted in the presence of oxygen", "value": 6, "unit": "%"}, {"measurement": "Kd", "setting": "[1]", "value": 220, "unit": "nM"}, {"measurement": "Kd", "setting": "[2]", "value": 25, "unit": "nM"}, {"measurement": "Kd", "setting": "[3]", "value": 57, "unit": "nM"}, {"measurement": "Kd", "setting": "[4]", "value": 25, "unit": "nM"}]}]}
